In PubChem BioAssay AID1259407 (Chemical Carcinogenesis Research Information System (CCRIS), 2018):
Activity calls are given as the source filed them. How the calls were made is not given here.

Tested on: CCRIS mutagenicity, Ames/micronucleus/aberration tests
Assay: CCRIS mutagenicity studies
[1] = Test System: AMES SALMONELLA TYPHIMURIUM, Strain/Indicator: TA100, Metabolic Activation: NONE, Method: PREINCUBATION

Compound: CSc1ccc([N+](=O)[O-])cc1[N+](=O)[O-]
- mutagenic call (Test System: AMES SALMONELLA TYPHIMURIUM, Strain/Indicator: TA100(NR), Metabolic Activation: NONE, Method: PREINCUBATION): active; positive
- mutagenic call (Test System: AMES SALMONELLA TYPHIMURIUM, Strain/Indicator: TA100/GSH-, Metabolic Activation: NONE, Method: PREINCUBATION): active; positive
- mutagenic call [1]: active; positive

Compound: Nc1cccc(N)n1
- mutagenic call (Test System: AMES SALMONELLA TYPHIMURIUM, Strain/Indicator: TA98, Metabolic Activation: NONE, Method: PREINCUBATION): inactive; negative
- mutagenic call (Test System: AMES SALMONELLA TYPHIMURIUM, Strain/Indicator: TA98, Metabolic Activation: RAT, LIVER, S-9, PCB, Method: PREINCUBATION): active; positive
- mutagenic call (Test System: AMES SALMONELLA TYPHIMURIUM, Strain/Indicator: TA98, Metabolic Activation: RAT, LIVER, S-9, PHENOBARBITAL AND BETA-NAPHTHOFLAVONE, Method: PREINCUBATION): inactive; negative
- mutagenic call [1]: inactive; negative
- mutagenic call (Test System: AMES SALMONELLA TYPHIMURIUM, Strain/Indicator: TA100, Metabolic Activation: RAT, LIVER, S-9, PCB, Method: PREINCUBATION): inactive; negative
- mutagenic call (Test System: AMES SALMONELLA TYPHIMURIUM, Strain/Indicator: TA100, Metabolic Activation: RAT, LIVER, S-9, PHENOBARBITAL AND BETA-NAPHTHOFLAVONE, Method: PREINCUBATION): inactive; negative
- mutagenic call (Test System: AMES SALMONELLA TYPHIMURIUM, Strain/Indicator: TA1535, Metabolic Activation: NONE, Method: PREINCUBATION): inactive; negative
- mutagenic call (Test System: AMES SALMONELLA TYPHIMURIUM, Strain/Indicator: TA1535, Metabolic Activation: RAT, LIVER, S-9, PHENOBARBITAL AND BETA-NAPHTHOFLAVONE, Method: PREINCUBATION): inactive; negative
- mutagenic call (Test System: AMES SALMONELLA TYPHIMURIUM, Strain/Indicator: TA1537, Metabolic Activation: RAT, LIVER, S-9, PHENOBARBITAL AND BETA-NAPHTHOFLAVONE, Method: PREINCUBATION): active; positive
- mutagenic call (Test System: E. COLI, Strain/Indicator: WP2UVRA, Metabolic Activation: NONE, Method: PREINCUBATION): inactive; negative
- mutagenic call (Test System: E. COLI, Strain/Indicator: WP2UVRA, Metabolic Activation: RAT, LIVER, S-9, PHENOBARBITAL AND BETA-NAPHTHOFLAVONE, Method: PREINCUBATION): inactive; negative

Compound: Nc1nc(NO)c2ncn([C@@H]3O[C@H](CO)[C@@H](O)[C@H]3O)c2n1
- mutagenic call (Test System: AMES SALMONELLA TYPHIMURIUM, Strain/Indicator: TA100(TN5-1,8-DNP1011), Metabolic Activation: NONE, Method: STANDARD PLATE): active; positive
- mutagenic call (Test System: AMES SALMONELLA TYPHIMURIUM, Strain/Indicator: TA100(TN5-1,8-DNP1012), Metabolic Activation: NONE, Method: STANDARD PLATE): active; positive
- mutagenic call (Test System: AMES SALMONELLA TYPHIMURIUM, Strain/Indicator: TA100, Metabolic Activation: NONE, Method: STANDARD PLATE): active; positive

Compound: [Co]
- mutagenic call (End Point: IN VITRO MICRONUCLEUS, Test System: HUMAN LYMPHOCYTES, Metabolic Activation: NONE): active; positive
- mutagenic call (Test System: AMES SALMONELLA TYPHIMURIUM, Strain/Indicator: TA98, Metabolic Activation: NONE, Method: STANDARD PLATE): active; positive
- mutagenic call (Test System: AMES SALMONELLA TYPHIMURIUM, Strain/Indicator: TA98, Metabolic Activation: RAT, LIVER, S-9, PHENOBARBITAL, Method: STANDARD PLATE): inactive; negative
- mutagenic call (Test System: AMES SALMONELLA TYPHIMURIUM, Strain/Indicator: TA102, Metabolic Activation: NONE, Method: STANDARD PLATE): inactive; negative
- mutagenic call (Test System: AMES SALMONELLA TYPHIMURIUM, Strain/Indicator: TA102, Metabolic Activation: RAT, LIVER, S-9, PHENOBARBITAL, Method: STANDARD PLATE): inactive; negative
- mutagenic call (Test System: AMES SALMONELLA TYPHIMURIUM, Strain/Indicator: TA1535, Metabolic Activation: NONE, Method: STANDARD PLATE): inactive; negative
- mutagenic call (Test System: AMES SALMONELLA TYPHIMURIUM, Strain/Indicator: TA1535, Metabolic Activation: RAT, LIVER, S-9, PHENOBARBITAL, Method: STANDARD PLATE): inactive; negative
- mutagenic call (Test System: AMES SALMONELLA TYPHIMURIUM, Strain/Indicator: TA1537, Metabolic Activation: NONE, Method: STANDARD PLATE): active; positive
- mutagenic call (Test System: AMES SALMONELLA TYPHIMURIUM, Strain/Indicator: TA1537, Metabolic Activation: RAT, LIVER, S-9, PHENOBARBITAL, Method: STANDARD PLATE): inactive; negative
